# In ChEMBL document CHEMBL5113376, “Antimalarial application of quinones: A recent update” (Eur J Med Chem, 2021):
# Columns and labels:
# Plasmodium falciparum [1] = experiment: Antiplasmodial activity against Plasmodium falciparum W2 assessed as inhibition of parasite growth after 48 hrs by pLDH assay; assay type: functional, organism-based; settings: W2, 48 h
# Plasmodium falciparum [2] = experiment: Antimalarial activity against drug resistant Plasmodium falciparum K1; assay type: functional, organism-based
# [3] = Selectivity index, ratio of IC50 for human MDA-MB-231 cells to IC50 for Chloroquine resistant Plasmodium falciparum FCR-3; assay type: toxicity; settings: read-out: Ratio IC50
# Plasmodium falciparum [4] = experiment: Antiplasmodial activity against Chloroquine resistant plasmodium falciparum FCR-3; assay type: functional, organism-based
# Plasmodium falciparum [5] = experiment: Antimalarial activity against Plasmodium falciparum; assay type: functional, organism-based
# Plasmodium berghei [6] = experiment: In vivo antiplasmodial activity against Plasmodium berghei infected in Swiss mouse assessed as reduction of parasitaemia at 100 mg/kg, po for 3 days; assay type: functional; parameters: scale not given: the % may be the effect or the level left; settings: time 3 day
# Plasmodium falciparum [7] = experiment: Antimalarial activity against Chloroquine resistant blood stage Plasmodium falciparum clone W2; assay type: functional, organism-based
# Plasmodium falciparum [8] = experiment: Antimalarial activity against chloroquine resistant Plasmodium falciparum RKL-9 by Giemsa staining method; assay type: functional, organism-based
# Plasmodium falciparum [9] = experiment: Antimalarial activity against chloroquine sensitive Plasmodium falciparum RKL-2 by Giemsa staining method; assay type: functional, organism-based
# Plasmodium falciparum [10] = experiment: Antimalarial activity against Plasmodium falciparum 3D7 measured after 24 hrs by hypoxanthine based scintillation counting analysis; assay type: functional; settings: read-out: ED50 (the source's name)
# Plasmodium berghei [11] = experiment: In vivo antiplasmodial activity against Plasmodium berghei ANKA infected in CD-1 mouse assessed as decrease in parasitaemia at 50 mg/kg, ip measured after 4 days relative to control; assay type: functional; parameters: scale not given: the % may be the effect or the level left; settings: time 4 day
# [12] = Cytotoxicity against African green monkey Vero cells; assay type: toxicity, cell-based; settings: chlorocebus sabaeus
# Plasmodium berghei [13] = experiment: In vivo antiplasmodial activity against Plasmodium berghei ANKA infected in CD-1 mouse assessed as decrease in parasitaemia at 50 mg/kg, ip measured after 7 days relative to control; assay type: functional; parameters: scale not given: the % may be the effect or the level left; settings: time 7 day
# Plasmodium falciparum [14] = experiment: Potency index, ratio of chloroquine IC50 to compound IC50 for antimalarial activity against Plasmodium falciparum Dd2; assay type: functional
# Plasmodium falciparum [15] = experiment: Antimalarial activity against Plasmodium falciparum Dd2 by SYBR green method; assay type: functional, organism-based
# Plasmodium falciparum [16] = experiment: Antimalarial activity against Plasmodium falciparum 3D7; assay type: functional, organism-based
# Plasmodium falciparum [17] = experiment: Antimalarial activity against Plasmodium falciparum RKL-2; assay type: functional, organism-based
# Plasmodium falciparum [18] = experiment: Antimalarial activity against Plasmodium falciparum 3D7 assessed as inhibition of malarial growth by measuring dead rings/schizonts at 50 ug/ml relative to control; assay type: functional
# Plasmodium falciparum [19] = experiment: Antimalarial activity against Plasmodium falciparum RKL-2 assessed as inhibition of malarial growth by measuring dead rings/schizonts at 50 ug/ml relative to control; assay type: functional
# HEK293 = experiment: Cytotoxicity against HEK293 cells incubated for 48 hrs by MTT assay; assay type: functional; settings: Homo sapiens
# Plasmodium falciparum [20] = experiment: Antimalarial activity against Plasmodium falciparum 3D7 infected in human erythrocytes; assay type: functional, organism-based; settings: 3D7, Erythrocyte
# Plasmodium falciparum [21] = experiment: Antimalarial activity against Plasmodium falciparum NF54 by 96-well microtitre plate method based scintillation counting analysis; assay type: functional, organism-based
# Plasmodium falciparum [22] = experiment: Antimalarial activity against multi-drug resistant Plasmodium falciparum K1; assay type: functional, organism-based
# Plasmodium falciparum [23] = experiment: In vivo antimalarial activity against Plasmodium falciparum 3D70087/N9 infected in humanized mouse model assessed as reduction in parasitemia administered orally for 4 days measured on day 7 relative to control; assay type: functional; parameters: scale not given: the % may be the effect or the level left; settings: route po; time 7 day
# Plasmodium berghei [24] = experiment: In vivo antiplasmodial activity against Plasmodium berghei infected in mouse assessed as reduction of parasitaemia at 100 mg/kg/day, po for 4 days relative to control; assay type: functional; parameters: scale not given: the % may be the effect or the level left; settings: time 4 day
# Plasmodium berghei [25] = experiment: In vivo antiplasmodial activity against Plasmodium berghei infected in mouse assessed as increase in mean survival time at 50 mg/kg/day, ip for 4 days (reference value: 4 to 6 days); assay type: functional; settings: time 4 day
# Plasmodium falciparum [26] = experiment: Antiplasmodial activity against Plasmodium falciparum K1; assay type: functional, organism-based
# Plasmodium berghei [27] = experiment: In vivo antiplasmodial activity against Plasmodium berghei infected in mouse assessed as reduction of parasitaemia at 50 mg/kg/day, ip for 4 days relative to control; assay type: functional; parameters: scale not given: the % may be the effect or the level left; settings: time 4 day
# Plasmodium falciparum [28] = experiment: Antimalarial activity against chloroquine resistant Plasmodium falciparum RKL-9; assay type: functional, organism-based
# Plasmodium falciparum [29] = experiment: Antimalarial activity against chloroquine sensitive Plasmodium falciparum RKL-2; assay type: functional, organism-based
# Plasmodium falciparum [30] = experiment: Antiplasmodial activity against Plasmodium falciparum 3D7 infected in human erythrocytes assessed as growth inhibition; assay type: functional, organism-based; settings: 3D7, Erythrocyte
# Plasmodium falciparum [31] = experiment: Antimalarial activity against Plasmodium falciparum W2 by 96-well microtitre plate method based scintillation counting analysis; assay type: functional, organism-based
# Plasmodium falciparum [32] = experiment: Antimalarial activity against chloroquine […] Plasmodium falciparum 3D7 incubated for 72 hrs by SYBR green staining based fluorescence reader method; assay type: functional, organism-based; settings: 3D7, 72 h
# Plasmodium falciparum [33] = experiment: Antimalarial activity against chloroquine resistant Plasmodium falciparum K1 incubated for 72 hrs by SYBR green staining based fluorescence reader method; assay type: functional, organism-based; settings: K1, 72 h
# [34] = Selectivity index, ratio of CC50 for african green monkey Vero cells to IC50 for Chloroquine resistant Plasmodium falciparum K1; assay type: toxicity; settings: read-out: Ratio CC50/IC50
# Plasmodium falciparum [35] = experiment: Antimalarial activity against Plasmodium falciparum by 96-well microtitre plate method based scintillation counting analysis; assay type: functional, organism-based
# Plasmodium falciparum [36] = experiment: Antimalarial activity against Plasmodium falciparum Dd2 by H-hypoxanthine incorporation based assay; assay type: functional, organism-based
# Plasmodium falciparum [37] = experiment: Antimalarial activity against Plasmodium falciparum 3D7 by H-hypoxanthine incorporation based assay; assay type: functional, organism-based
# Plasmodium falciparum [38] = experiment: Antimalarial activity against Plasmodium falciparum TM91C235; assay type: functional, organism-based
# Plasmodium falciparum [39] = experiment: Antimalarial activity against Plasmodium falciparum W2; assay type: functional, organism-based
# Plasmodium falciparum [40] = experiment: Antimalarial activity against Plasmodium falciparum D6; assay type: functional, organism-based
# Plasmodium falciparum [41] = experiment: Antimalarial activity against Plasmodium falciparum TM90C2B (1995); assay type: functional, organism-based
# Plasmodium falciparum [42] = experiment: Antimalarial activity against Plasmodium falciparum TM90C2B (2007); assay type: functional, organism-based
# Plasmodium berghei [43] = experiment: Antimalarial activity against Plasmodium berghei; assay type: functional, organism-based
structure (smiles),measurement,setting,value
O=C1c2ccccc2C(=O)c2oc(Cc3ccccc3)cc21,IC50,Plasmodium falciparum [1],1500 nM
CCCn1c2c([n+](C(C)C)c1C)C(=O)c1ccccc1C2=O,IC50,Plasmodium falciparum [2],3.2 nM
CC(C)=CCC/C(=C/CC/C(C)=C/CCc1ccc2c(c1)C(=O)C=C(C)C2=O)C(=O)O,selectivity ratio,[3],443
same,IC50,Plasmodium falciparum [4],5400 nM
CNCCCCNCCCNC(=O)c1c(C)oc2c1C(=O)c1ccccc1C2=O,IC50,Plasmodium falciparum [5],50 nM
O=C1C(O)=C(CN2CC3CCC2CC3)C(=O)c2ccccc21,Activity,Plasmodium berghei [6],<=63%
same,IC50,Plasmodium falciparum [7],1300 nM
O=C1C(O)=C(NCCNc2ccnc3cc(Cl)ccc23)C(=O)c2ccccc21,IC50,Plasmodium falciparum [8],0.684 µg/mL
same,IC50,Plasmodium falciparum [9],0.391 µg/mL
Cc1cc(O)c2c(c1)C(O)(c1ccc3c(c1O)C(=O)c1c(O)cc(C)c(O)c1C3=O)c1cccc(O)c1C2=O (stereo not given),EC50,Plasmodium falciparum [10],0.537 µg/mL
CCN(CC)CCCC(C)Nc1ccnc2cc(Cl)ccc12 (stereo not given) [CHLOROQUINE],Activity,Plasmodium berghei [11],86.3%
same,CC50,[12],227000 nM
same,Activity,Plasmodium berghei [13],76.8%
CC1=C(Cc2ccc(NC(=O)OC(C)(C)C)cc2)C(=O)c2ccccc2C1=O,Ratio IC50,Plasmodium falciparum [14],3
same,IC50,Plasmodium falciparum [15],42 nM
same,Activity,Plasmodium berghei [11],75.5%
same,Activity,Plasmodium berghei [13],81.8%
O=C1C(O)=C(C(Nc2cccc([N+](=O)[O-])c2)c2ccc([N+](=O)[O-])cc2)C(=O)c2ccccc21 (stereo not given),IC50,Plasmodium falciparum [16],475 nM
same,IC50,Plasmodium falciparum [17],1390 nM
same,inhibition at 50 µg/mL,Plasmodium falciparum [18],72.5%
same,inhibition at 50 µg/mL,Plasmodium falciparum [19],70%
O=C1C(O)=C(C(c2ccccc2O)N2CCCC2)C(=O)c2ccccc21 (stereo not given),IC50,Plasmodium falciparum [16],0.411 µg/mL
same,IC50,Plasmodium falciparum [17],1.17 µg/mL
same,inhibition at 50 µg/mL,Plasmodium falciparum [18],72.5%
same,inhibition at 50 µg/mL,Plasmodium falciparum [19],70%
O=C1C(O)=C(Cc2ccccc2)C(=O)c2ccccc21,CC50,HEK293,54600 nM
same,IC50,Plasmodium falciparum [20],443 nM
COc1cc(O)c(-c2c(C)cc(O)c3c2C(=O)c2cccc(O)c2C3=O)c(O)c1C(C)=O [KNIPHOLONE],IC50,Plasmodium falciparum [21],1700 nM
CSC1=CC2=C(C(=O)c3ccc([C@H]4C[C@@H](O)[C@H](O)[C@@H](C)O4)c(O)c3C2=O)[C@@]2(O)C(=O)C[C@](C)(O)C[C@@]12O,IC50,Plasmodium falciparum [22],0.0534 µg/mL
Cc1n(C(C)C)c2c([n+]1C(C)C)C(=O)c1ccccc1C2=O.[Br-],Activity,Plasmodium falciparum [23],90%
O=C(O)c1cc2c(o1)C(=O)C1=C(C2=O)S(=O)(=O)C=CN1,Activity,Plasmodium berghei [24],47%
same,Time,Plasmodium berghei [25],9 days
same,IC50,Plasmodium falciparum [26],120 nM
same,Activity,Plasmodium berghei [27],85.7%
O=C1C(O)=C(Nc2ccc(O)c(CN3CCOCC3)c2)C(=O)c2ccccc21,IC50,Plasmodium falciparum [28],0.993 µg/mL
same,IC50,Plasmodium falciparum [29],0.391 µg/mL
COC1=C2C[C@@H](C)C[C@H](OC)[C@H](O)[C@@H](C)/C=C(\C)[C@H](OC(N)=O)[C@@H](OC)/C=C\C=C(/C)C(=O)NC(=CC1=O)C2=O [GELDANAMYCIN],IC50,Plasmodium falciparum [30],20 nM
C=C(C)C1CC2=C(O1)C(=O)c1ccccc1C2=O (stereo not drawn) [DEHYDROISO-ALPHA-LAPACHONE],IC50,Plasmodium falciparum [31],7.53 µg/mL
Cc1cc(O)c2c(c1)C(=O)c1cc(O)c(CN3CCCCC3)c(O)c1C2=O,IC50,Plasmodium falciparum [32],2740 nM
same,IC50,Plasmodium falciparum [33],2280 nM
same,CC50,[12],782000 nM
same,selectivity ratio,[34],315
CCCNCc1cc(NC2=C(O)C(=O)c3ccccc3C2=O)ccc1O,IC50,Plasmodium falciparum [28],2.92 µg/mL
same,IC50,Plasmodium falciparum [29],0.453 µg/mL
Cc1cc(O)c2c(c1)C(=O)C(c1c(C)cc3c(c1O)C(=O)C=CC3=O)=CC2=O [DIOSPYRIN],IC50,Plasmodium falciparum [35],3.29 µg/mL
Cc1oc2c(c1C(=O)NC(CCC(N)=O)C(=O)O)C(=O)c1ccccc1C2=O (stereo not given),IC50,Plasmodium falciparum [5],2000 nM
CCCN(CCC)CC1=C(O)C(=O)c2ccccc2C1=O,Activity,Plasmodium berghei [6],<=63%
same,IC50,Plasmodium falciparum [7],1900 nM
CC1=C(Cc2ccncc2)C(=O)c2ccccc2C1=O,IC50,Plasmodium falciparum [36],69 nM
same,IC50,Plasmodium falciparum [37],67 nM
CCCCCC[C@H](C)CC1=C(O)C(=O)c2c(C)cccc2C1=O,IC50,Plasmodium falciparum [38],229 nM
same,IC50,Plasmodium falciparum [39],191 nM
same,IC50,Plasmodium falciparum [40],73 nM
same,IC50,Plasmodium falciparum [41],234 nM
same,IC50,Plasmodium falciparum [42],193 nM
same,IC50,Plasmodium berghei [43],246 nM
O=C1C(O)=C([C@H]2CC[C@H](c3ccc(Cl)cc3)CC2)C(=O)c2ccccc21 [ATOVAQUONE],IC50,Plasmodium falciparum [39],1 nM
same,IC50,Plasmodium falciparum [40],0.34 nM
same,IC50,Plasmodium berghei [43],19.7 nM
same,CC50,HEK293,49 nM
